Test results from US20040248879A1, “Salts of tricyclic inhibitors of poly(ADP-ribose) polymerases” (Agouron Pharmaceuticals, Inc., priority 2003, published 2004).
In brackets after ≈: the same amount, converted by molar mass.

Experiments:
[1] = Water Solubility Assay; assay type: physicochemical; settings: Milli Q water, room temperature, stirred 3 hours, HPLC; for solubility at 3 h: water, thermodynamic from solid
Experimental: The sample suspension was stirred at room temperature for 3 hours. The suspension was transferred into an eppendorf vial and centrifuged at 14000 rpm for 8 minutes. The supernant solution was then assayed by HPLC.
The suspension was stirred at room temperature for 3 hours and then centrifuged at 14000/min for 8 minutes. The supernant was diluted 10 times by Milli Q water. The final solution was then assayed by HPLC.
Accurately weigh out 2.5-3.0 mg of AG014447 reference standard into 10 ml volumetric flask, and then bring to volume with MeOH. Mix thoroughly.
Buffer: 25 mM ammonium phosphate buffer (pH 2.5)
Organic Modifier: Acetonitrile (ACN)
Column: Waters Symmetry C18, 4.6×150 mm, 5 μm;
The solubility of the sample is calculated by the equation below: […]
Where A is the peak area of the sample; As is the peak area of the standard; Cs is the concentration of the standard solution; D is the dilution factor. [drawing 2]

[2] = test system: A549 cells; test: Cytotoxicity Potentiation Assay; assay type: cell-based; settings: test compound 0.4 μm, with topotecan, ratio of IC50 of topotecan alone to IC50 in combination
Experimental: Cytotoxicity Potentiation Assay: A549 cells (ATCC, Rockville, Md.) were seeded into 96-well cell culture plates (Falcon brand, Fisher Scientific, Pittsburgh, Pa.) 16 to 24 hours before experimental manipulation. Cells were then treated with a test compound (or a combination of test compounds where indicated) for either 3 days or 5 days, at a concentration of 0.4 μm. At the end of treatments, relative cell number was determined either by MTT assay or SRB assay. For the MTT assay, 0.2 μg/μl of MTT (3-(4,5-dimethylthiazol-2-yl)-2,5-diphenyltetrazolium bromide, Sigma Chemical Co., St. Louis, Mo.) was added to each well of a plate, and the plate was incubated in a cell-culture incubator for 4 hours. Metabolized MTT in each well was solubilized in 150 μl of DMSO (Sigma Chemical Co.) with shaking and quantified with a Wallac 1420 Victor plate reader (EG&G Wallac, Gaithersburg, Md.) at 540 nm. For the SRB assay, cells were fixed with 10% trichloroacetic acid (Sigma Chemical Co) for an hour at 4° C. […] The bound dye was measured photometrically with the Wallac Victor plate reader at 515 nm. The ratio of the OD (optical density) value of a compound-treated culture to the OD value of a mock-treated culture, expressed in percentage, was used to quantify the cytotoxicity of a compound. […] For the compounds of the invention, PF50 values were determined by testing with topotecan.

| Structure (SMILES) | solubility at 3 h [1] | Solubility [1] | further results |
| --- | --- | --- | --- |
| CC(=O)O.CNCc1ccc(-c2[nH]c3cc(F)cc4c3c2CCNC4=O)cc1 [Acetate, 8-fluoro-2-(4-methylaminomethyl-phenyl)-1,3,4,5-tetrahydro-azepino[5,4,3-cd]indol-6-one Acetate] | 8800 µg/mL | – | – |
| CNCc1ccc(-c2[nH]c3cc(F)cc4c3c2CCNC4=O)cc1 [Free base, 8-fluoro-2-(4-methylaminomethyl-phenyl)-1,3,4,5-tetrahydro-azepino[5,4,3-cd]indol-6-one] | – | 180 µg/mL (≈ 0.557 mM) | Cytotoxicity Potentiation PF50 [2]: 2.4 |
| CNCc1ccc(-c2[nH]c3cc(F)cc4c3c2CCNC4=O)cc1 [Gluconate, 8-Fluoro-2-(4-methylaminomethyl-phenyl)-1,3,4,5-tetrahydro-azepino[5,4,3-cd]indol-6-one Gluconate] | – | >128000 µg/mL | – |
| CNCc1ccc(-c2[nH]c3cc(F)cc4c3c2CCNC4=O)cc1 [Glucuronate, 8-Fluoro-2-(4-methylaminomethyl-phenyl)-1,3,4,5-tetrahydro-azepino[5,4,3-cd]indol-6-one Glucuronate] | – | 89000 µg/mL (≈ 275 mM) | – |
| CNCc1ccc(-c2[nH]c3cc(F)cc4c3c2CCNC4=O)cc1.Cl [Hydrochloride, 8-Fluoro-2-(4-methylaminomethyl-phenyl)-1,3,4,5-tetrahydro-azepino[5,4,3-cd]indol-6-one Hydrochloride] | 1600 µg/mL | – | – |
| CNCc1ccc(-c2[nH]c3cc(F)cc4c3c2CCNC4=O)cc1.CS(=O)(=O)O [Mesylate, 8-Fluoro-2-(4-methylaminomethyl-phenyl)-1,3,4,5-tetrahydro-azepino[5,4,3-cd]indol-6-one Mesylate] | 15500 µg/mL | – | – |
| CNCc1ccc(-c2[nH]c3cc(F)cc4c3c2CCNC4=O)cc1 [Phosphate, 8-Fluoro-2-(4-methylaminomethyl-phenyl)-1,3,4,5-tetrahydro-azepino[5,4,3-cd]indol-6-one Phosphate] | – | – | Solubility ([1]; Phosphate): 2800 µg/mL |
| CNCc1ccc(-c2[nH]c3cc(F)cc4c3c2CCNC4=O)cc1.O=C(O)C(O)C(O)C(=O)O [Tartrate, 8-Fluoro-2-(4-methylaminomethyl-phenyl)-1,3,4,5-tetrahydro-azepino[5,4,3-cd]indol-6-one Tartrate] | 1100 µg/mL | – | – |
